According to patent US8501783B2, “Conformationally restricted urea inhibitors of soluble epoxide hydrolase” (The Regents of the University of California, priority 2006, dated 2013):
Where “and” joins values, the source holds several entries; their conditions need not be identical. Equal values may be shown once. Read-outs that look alike come from different tables or passages of the source.

Experiments:
human sEH = human sEH (Homo sapiens (Human), UniProt P34913); assay: Inhibition of human soluble epoxide hydrolase (IC50; one of three substrate methods); assay type: biochemical;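 also: enzyme expressed in baculovirus and affinity-purified, assays run in triplicate, with substrate and read-out differing among the three methods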
Sequence of human sEH (P34913 whole entry): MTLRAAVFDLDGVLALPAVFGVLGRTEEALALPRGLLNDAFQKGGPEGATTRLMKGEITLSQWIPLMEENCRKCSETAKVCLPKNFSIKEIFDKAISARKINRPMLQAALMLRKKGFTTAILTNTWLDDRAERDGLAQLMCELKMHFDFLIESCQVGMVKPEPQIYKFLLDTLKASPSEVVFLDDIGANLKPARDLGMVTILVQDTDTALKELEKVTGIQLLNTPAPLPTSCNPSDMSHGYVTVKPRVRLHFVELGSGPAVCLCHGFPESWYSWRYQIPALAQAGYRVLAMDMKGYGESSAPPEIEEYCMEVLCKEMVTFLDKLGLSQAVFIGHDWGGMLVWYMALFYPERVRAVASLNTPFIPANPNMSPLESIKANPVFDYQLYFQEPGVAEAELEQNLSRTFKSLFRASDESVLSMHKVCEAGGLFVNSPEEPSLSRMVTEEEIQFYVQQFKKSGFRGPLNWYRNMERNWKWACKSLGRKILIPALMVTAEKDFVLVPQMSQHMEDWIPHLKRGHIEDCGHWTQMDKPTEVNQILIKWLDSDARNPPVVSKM

[1] = Solubility in oil of the dosing preparation (compound in Crisco); assay type: physicochemical; settings: appearance in oil, in parentheses after compound number
From the text: The dogs are fed immediately thereafter.

[2] = Pharmacokinetic screening in dogs, oral administration, plasma LC-MS/MS; settings: for AUC: dog, plasma, po; for AUCINF_D_pred: dose-normalised; for LC/MS analysis, plasma level at time 0 / LC/MS analysis, plasma level at time 15 / LC/MS analysis, plasma level at time 30 / LC/MS analysis, plasma level at time 60 / LC/MS analysis, plasma level at time 120 / LC/MS analysis, plasma level at time 180 / LC/MS analysis, plasma level at time 240 / LC/MS analysis, plasma level at time 300 / LC/MS analysis, plasma level at time 360 / LC/MS analysis, plasma level at time 480 / LC/MS analysis, plasma level at time 1440: single oral dose (0.3 mg/kg per FIG. 1)

CCCC(=O)N1CCC(NC(=O)NC23CC4CC(CC(C4)C2)C3)CC1 [Compound 1157, N-(1-butyrylpiperidin-4-yl)-N′-(adamant-1-yl)urea]
IC50 (human sEH): 2.6 nM and 2.64 nM
solubility in oil [1]: 1157 (Opaque)
AUC ([2]; 0.3 mg/kg): 0.0367 µM·h
AUCINF_D_pred ([2]; dogs, oral): 7187 kg·nM·min/mg
LC/MS analysis, plasma level at time 0 ([2]; dogs, time 0 min): 0.00
LC/MS analysis, plasma level at time 15 ([2]; dogs, time 15 min): 0.58
LC/MS analysis, plasma level at time 30 ([2]; dogs, time 30 min): 5.18
LC/MS analysis, plasma level at time 60 ([2]; dogs, time 60 min): 7.77
LC/MS analysis, plasma level at time 120 ([2]; dogs, time 120 min): 9.50
LC/MS analysis, plasma level at time 180 ([2]; dogs, time 180 min): 7.05
LC/MS analysis, plasma level at time 240 ([2]; dogs, time 240 min): 4.60
LC/MS analysis, plasma level at time 300 ([2]; dogs, time 300 min): 2.45
LC/MS analysis, plasma level at time 360 ([2]; dogs, time 360 min): 2.45
LC/MS analysis, plasma level at time 480 ([2]; dogs, time 480 min): 0.86
LC/MS analysis, plasma level at time 1440 ([2]; dogs, time 1440 min): 0.00

O=C(NCC1CCN(C(=O)c2ccccc2)CC1)NC12CC3CC(CC(C3)C1)C2 [Compound 1121, N-((1-benzoylpiperidin-4-yl)methyl)-N′-(adamant-1-yl)urea]
IC50 (human sEH; recombinant human sEH): 3.2 nM
solubility in oil [1]: 1121 (Not dissolved)
LC/MS analysis, plasma level at time 0 ([2]; dogs, time 0 min): 0.00
LC/MS analysis, plasma level at time 15 ([2]; dogs, time 15 min): 4.86
LC/MS analysis, plasma level at time 30 ([2]; dogs, time 30 min): 3.81
LC/MS analysis, plasma level at time 60 ([2]; dogs, time 60 min): 1.98
LC/MS analysis, plasma level at time 120 ([2]; dogs, time 120 min): 0.42
LC/MS analysis, plasma level at time 180 ([2]; dogs, time 180 min): 0.16
LC/MS analysis, plasma level at time 240 ([2]; dogs, time 240 min): 0.06
LC/MS analysis, plasma level at time 300 ([2]; dogs, time 300 min): 0.05
LC/MS analysis, plasma level at time 360 ([2]; dogs, time 360 min): 0.03
LC/MS analysis, plasma level at time 480 ([2]; dogs, time 480 min): 0.03
LC/MS analysis, plasma level at time 1440 ([2]; dogs, time 1440 min): 0.04

O=C(NC1CCN(C(=O)c2ccccn2)CC1)NC12CC3CC(CC(C3)C1)C2 [Compound 1201, N-(1-(Pyridine-2-carbonyl)piperidin-4-yl)-N′-(adamant-1-yl)urea]
IC50 (human sEH; recombinant human sEH): 1.2 nM
solubility in oil [1]: 1201 (Suspension)
AUC ([2]; 0.3 mg/kg): 0.08 µM·h
AUCINF_D_pred ([2]; dogs, oral): 16100 kg·nM·min/mg
LC/MS analysis, plasma level at time 0 ([2]; dogs, time 0 min): 0.00
LC/MS analysis, plasma level at time 15 ([2]; dogs, time 15 min): 9.19
LC/MS analysis, plasma level at time 30 ([2]; dogs, time 30 min): 32.65
LC/MS analysis, plasma level at time 60 ([2]; dogs, time 60 min): 42.48
LC/MS analysis, plasma level at time 120 ([2]; dogs, time 120 min): 21.09
LC/MS analysis, plasma level at time 180 ([2]; dogs, time 180 min): 7.15
LC/MS analysis, plasma level at time 240 ([2]; dogs, time 240 min): 3.16
LC/MS analysis, plasma level at time 300 ([2]; dogs, time 300 min): 1.72
LC/MS analysis, plasma level at time 360 ([2]; dogs, time 360 min): 0.00
LC/MS analysis, plasma level at time 480 ([2]; dogs, time 480 min): 0.00
LC/MS analysis, plasma level at time 1440 ([2]; dogs, time 1440 min): 0.00

CC(=O)N1CCC(NC(=O)NC23CC4CC(CC(C4)C2)C3)CC1 [Compound 1153, N-(1-acetylpiperidin-4-yl)-N′-(adamant-1-yl)urea]
solubility in oil [1]: 1153 (Opaque)
AUC ([2]; 0.3 mg/kg): 0.597 µM·h
plasma level, in solution at 0.1 mg/kg dose, time 0 ([2]; dogs, oral, 0.1 mg/kg, time 0 min): 0.31
plasma level, in solution at 0.1 mg/kg dose, time 15 ([2]; dogs, oral, 0.1 mg/kg, time 15 min): 5.33
plasma level, in solution at 0.1 mg/kg dose, time 30 ([2]; dogs, oral, 0.1 mg/kg, time 30 min): 19.59
plasma level, in solution at 0.1 mg/kg dose, time 60 ([2]; dogs, oral, 0.1 mg/kg, time 60 min): 56.74
plasma level, in solution at 0.1 mg/kg dose, time 120 ([2]; dogs, oral, 0.1 mg/kg, time 120 min): 106.43
plasma level, in solution at 0.1 mg/kg dose, time 180 ([2]; dogs, oral, 0.1 mg/kg, time 180 min): 100.94
plasma level, in solution at 0.1 mg/kg dose, time 240 ([2]; dogs, oral, 0.1 mg/kg, time 240 min): 75.71
plasma level, in solution at 0.1 mg/kg dose, time 300 ([2]; dogs, oral, 0.1 mg/kg, time 300 min): 44.51
plasma level, in solution at 0.1 mg/kg dose, time 360 ([2]; dogs, oral, 0.1 mg/kg, time 360 min): 29.15
plasma level, in solution at 0.1 mg/kg dose, time 480 ([2]; dogs, oral, 0.1 mg/kg, time 480 min): 13.01
plasma level, in solution at 0.1 mg/kg dose, time 1440 ([2]; dogs, oral, 0.1 mg/kg, time 1440 min): 0.00
plasma level, in solution at 0.3 mg/kg dose, time 0 ([2]; dogs, oral, 0.3 mg/kg, time 0 min): 0.00
plasma level, in solution at 0.3 mg/kg dose, time 15 ([2]; dogs, oral, 0.3 mg/kg, time 15 min): 288.97
plasma level, in solution at 0.3 mg/kg dose, time 30 ([2]; dogs, oral, 0.3 mg/kg, time 30 min): 276.16
plasma level, in solution at 0.3 mg/kg dose, time 60 ([2]; dogs, oral, 0.3 mg/kg, time 60 min): 241.03
plasma level, in solution at 0.3 mg/kg dose, time 120 ([2]; dogs, oral, 0.3 mg/kg, time 120 min): 107.19
plasma level, in solution at 0.3 mg/kg dose, time 180 ([2]; dogs, oral, 0.3 mg/kg, time 180 min): 56.41
plasma level, in solution at 0.3 mg/kg dose, time 240 ([2]; dogs, oral, 0.3 mg/kg, time 240 min): 26.42
plasma level, in solution at 0.3 mg/kg dose, time 300 ([2]; dogs, oral, 0.3 mg/kg, time 300 min): 20.81
plasma level, in solution at 0.3 mg/kg dose, time 360 ([2]; dogs, oral, 0.3 mg/kg, time 360 min): 10.10
plasma level, in solution at 0.3 mg/kg dose, time 480 ([2]; dogs, oral, 0.3 mg/kg, time 480 min): 4.66
plasma level, in solution at 0.3 mg/kg dose, time 1440 ([2]; dogs, oral, 0.3 mg/kg, time 1440 min): 0.00
AUCINF_D_pred ([2]; dogs, oral): 119214 kg·nM·min/mg
LC/MS analysis, plasma level at time 0 ([2]; dogs, time 0 min): 0.00
LC/MS analysis, plasma level at time 15 ([2]; dogs, time 15 min): 288.97
LC/MS analysis, plasma level at time 30 ([2]; dogs, time 30 min): 276.16
LC/MS analysis, plasma level at time 60 ([2]; dogs, time 60 min): 2411.03
LC/MS analysis, plasma level at time 120 ([2]; dogs, time 120 min): 107.19
LC/MS analysis, plasma level at time 180 ([2]; dogs, time 180 min): 56.41
LC/MS analysis, plasma level at time 240 ([2]; dogs, time 240 min): 26.42
LC/MS analysis, plasma level at time 300 ([2]; dogs, time 300 min): 20.81
LC/MS analysis, plasma level at time 360 ([2]; dogs, time 360 min): 10.10
LC/MS analysis, plasma level at time 480 ([2]; dogs, time 480 min): 4.66
LC/MS analysis, plasma level at time 1440 ([2]; dogs, time 1440 min): 0.00

O=C(NC1CCN(C(=O)C(F)(F)F)CC1)NC12CC3CC(CC(C3)C1)C2 [Compound 1606]
solubility in oil [1]: 1606 (Suspension)
AUC ([2]; 0.3 mg/kg): 0.0433 µM·h
AUCINF_D_pred ([2]; dogs, oral): 8553 kg·nM·min/mg
LC/MS analysis, plasma level at time 0 ([2]; dogs, time 0 min): 0.00
LC/MS analysis, plasma level at time 15 ([2]; dogs, time 15 min): 0.00
LC/MS analysis, plasma level at time 30 ([2]; dogs, time 30 min): 1.61
LC/MS analysis, plasma level at time 60 ([2]; dogs, time 60 min): 4.82
LC/MS analysis, plasma level at time 120 ([2]; dogs, time 120 min): 9.37
LC/MS analysis, plasma level at time 180 ([2]; dogs, time 180 min): 10.98
LC/MS analysis, plasma level at time 240 ([2]; dogs, time 240 min): 6.83
LC/MS analysis, plasma level at time 300 ([2]; dogs, time 300 min): 5.62
LC/MS analysis, plasma level at time 360 ([2]; dogs, time 360 min): 3.21
LC/MS analysis, plasma level at time 480 ([2]; dogs, time 480 min): 1.47
